The source of these data is patent publication US20250313563A1, “GLYCOGEN SYNTHASE KINASE 3 INHIBITORS AND USES THEREOF” (The Broad Institute, Inc., priority 2022, published 2025).

Read-outs that look alike come from different tables or passages of the source.

Assay [1] deals with GSK3b (GST-full length GSK3b) (Homo sapiens (Human), UniProt P49841). Nature of the assay: GSK3b TR-FRET kinase assay. The format is biochemical. The procedure, abridged:
(§1)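 Compound was preincubated 30 min with 1 nM GST-GSK3 enzyme. Reaction ran 100 min at ambient temperature in Tris pH 7.5/MgCl2 with 200 nM biotinylated pS645-glycogen synthase 631-650 peptide and ATP (4 μM GSK3α, 2 μM GSK3b, or 1 mM). The EDTA-stopped reaction was read by TR-FRET (Tb-anti-pSer641/streptavidin-d2), and IC50s were fitted.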
On the technique in general: Time-resolved FRET reads energy transfer from a long-lived donor to a nearby acceptor.

In assay [2] the target is GSK3α (GST-full length GSK3α) (Homo sapiens (Human), UniProt P49840). The assay is described as follows: GSK3α TR-FRET kinase assay. It is filed as biochemical. A digest of the protocol: as §1
Chain of GSK3α (GST-full length GSK3α) (P49840 whole entry): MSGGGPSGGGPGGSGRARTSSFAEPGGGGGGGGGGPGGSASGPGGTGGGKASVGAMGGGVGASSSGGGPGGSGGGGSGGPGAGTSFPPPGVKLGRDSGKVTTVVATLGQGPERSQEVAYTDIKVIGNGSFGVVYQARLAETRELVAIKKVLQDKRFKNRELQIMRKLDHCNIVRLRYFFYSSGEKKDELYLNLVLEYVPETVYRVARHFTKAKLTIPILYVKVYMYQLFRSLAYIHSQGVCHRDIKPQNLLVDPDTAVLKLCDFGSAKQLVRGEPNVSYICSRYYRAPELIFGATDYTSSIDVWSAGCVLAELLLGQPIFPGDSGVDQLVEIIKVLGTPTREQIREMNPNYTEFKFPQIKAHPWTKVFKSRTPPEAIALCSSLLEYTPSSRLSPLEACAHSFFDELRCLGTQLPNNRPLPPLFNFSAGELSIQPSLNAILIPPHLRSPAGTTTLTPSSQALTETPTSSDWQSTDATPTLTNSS
Setting [3] is: 1 nM GSK3b, 2 μM ATP, 30 minute preincubation, geometric mean, read-out: GSK3-B TR-FRET BIOCHEMICAL (TR-FRET), GMean, IC50.
Setting [4] is: 1 nM GSK3α, 4 μM ATP, 30 minute preincubation, geometric mean, read-out: GSK3-A TR-FRET BIOCHEMICAL (TR-FRET), GMean, IC50.
[5] abbreviates: 1 nM GSK3b, 2 μM ATP, 30 minute preincubation, Table 16, read-out: GSK3-B TR-FRET BIOCHEMICAL (TR-FRET).
The mark [6] stands for this setting: 1 nM GSK3α, 4 μM ATP, 30 minute preincubation, Table 16, read-out: GSK3-A TR-FRET BIOCHEMICAL (TR-FRET).
Setting [7] is: read-out: GSK3-B (TR-FRET 1 mM ATP), GMean, IC50, 1 mM ATP, geometric mean.
Where [8] appears, read: read-out: GSK3-A (TR-FRET 1 mM ATP), GMean, IC50, 1 mM ATP, geometric mean.
The mark [9] stands for this setting: 1 nM GSK3b, 2 μM ATP, 30 minute preincubation, read-out: GSK3-B TR-FRET BIOCHEMICAL (TR-FRET), IC50.
[10] abbreviates: 1 nM GSK3α, 4 μM ATP, 30 minute preincubation, read-out: GSK3-A TR-FRET BIOCHEMICAL (TR-FRET), IC50.

Chain of GSK3b (GST-full length GSK3b) (P49841 whole entry): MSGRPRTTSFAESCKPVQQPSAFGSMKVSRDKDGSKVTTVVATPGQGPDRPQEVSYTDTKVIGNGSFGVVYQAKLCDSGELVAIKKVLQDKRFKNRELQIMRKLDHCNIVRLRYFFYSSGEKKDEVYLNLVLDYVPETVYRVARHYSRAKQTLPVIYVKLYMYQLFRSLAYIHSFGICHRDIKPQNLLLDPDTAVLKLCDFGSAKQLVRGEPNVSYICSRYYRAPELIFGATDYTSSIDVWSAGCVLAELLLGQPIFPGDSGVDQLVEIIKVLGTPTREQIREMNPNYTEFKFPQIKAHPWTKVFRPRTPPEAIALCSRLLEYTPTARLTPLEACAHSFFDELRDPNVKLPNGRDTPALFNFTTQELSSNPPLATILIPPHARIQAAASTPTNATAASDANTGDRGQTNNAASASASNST

Take `CCC1(c2cccc(S(C)(=O)=O)c2)C2=C(CC(C)(C)NC2=O)Nc2n[nH]c(C(F)(F)F)c21` (centres unmarked) [Compound 947799]: the IC50 in assay [1] (setting [3]) and in assay [2] (setting [4]) was at most 100 nM throughout.

Consider `CCC1(c2cccc(S(=O)(=O)C(C)C)c2)C2=C(CC(C)(C)NC2=O)Nc2n[nH]c(C(F)(F)F)c21` (centres unmarked) [Compound 947800], for which the IC50 in assay [1] (setting [3]) and in assay [2] (setting [4]) was at most 100 nM throughout.

In the case of `CCC1(c2cccc(-c3cnn4c3CCCC4)c2)C2=C(CC(C)(C)NC2=O)Nc2n[nH]c(C(F)(F)F)c21` (centres unmarked) [Compound 947801], the IC50 in assay [1] (setting [3]) and in assay [2] (setting [4]) was at most 100 nM in each case.

As for `CCC1(c2cccc(-c3cnnn3C)c2)C2=C(CC(C)(C)CC2=O)Nc2n[nH]cc21` (centres unmarked) [Compound 947802], the IC50 in assay [1] (setting [5]) and in assay [2] (setting [6]) was at most 100 nM each time.

On to `CC[C@@]1(c2cccc(S(=O)(=O)C3CC3)c2)C2=C(CC(C)(C)NC2=O)Nc2n[nH]cc21` [Compound 947803], for which the IC50 in assay [1] (setting [3]) and in assay [2] (setting [4]) was at most 100 nM in each case.

Take `CCC1(c2cccc(-c3cc(C)ncc3F)c2)C2=C(CC(C)(C)NC2=O)Nc2n[nH]cc21` (centres unmarked) [Compound 947804]: the IC50 in assay [1] (setting [3]) is 100 to 1000 nM; in assay [2] (setting [4]), at most 100 nM.

For the molecule `CC[C@]1(c2cccc(-c3ccncc3F)c2)C2=C(CC(C)(C)NC2=O)Nc2n[nH]c(C)c21` [Compound 947805], the IC50 lay within 1000 to 5000 nM in assay [1] (setting [3]) and 100 to 1000 nM in assay [2] (setting [4]).

For the molecule `CCC1(c2cccc(-c3cncn3C)c2)C2=C(CC(C)(C)NC2=O)Nc2n[nH]cc21` (centres unmarked) [Compound 947806], the IC50 in assay [1] (setting [3]) and in assay [2] (setting [4]) was at most 100 nM in each case.

As to `CC[C@]1(c2cccc(-c3cnn(C)c3C)c2)C2=C(CC(C)(C)NC2=O)Nc2n[nH]c(C(F)(F)F)c21` [Compound 947807], the IC50 in assay [1] (setting [3]) is 100 to 1000 nM; in assay [2] (setting [4]), at most 100 nM.

For the molecule `CCC1(c2cccc(Oc3ncccn3)c2)C2=C(CC(C)(C)CC2=O)Nc2n[nH]cc21` (centres unmarked) [Compound 947808], the IC50 is at most 100 nM in assay [1] (setting [5]), 100 to 1000 nM in assay [1] (setting [7]), at most 100 nM in assay [2] (setting [6]) and at most 100 nM in assay [2] (setting [8]).

Regarding `CC[C@]1(c2cccc(-c3cnn4c3CCCC4)c2)C2=C(CC(C)(C)NC2=O)Nc2n[nH]c(C)c21` [Compound 947809], the results for the IC50 in assay [1] (setting [3]) and in assay [2] (setting [4]) were 1000 to 5000 nM and 100 to 1000 nM, respectively.

For `CC[C@]1(c2cccc(-c3ccnc(CCO)c3)c2)C2=C(CC(C)(C)CC2=O)Nc2n[nH]cc21` [Compound 947810], the IC50 in assay [1] (setting [5]) was 100 to 1000 nM; in assay [2] (setting [6]), at most 100 nM.

As to `CC[C@]1(c2cccc(-c3ccncc3C)c2)C2=C(CC(C)(C)NC2=O)Nc2[nH]nc(C(F)(F)F)c21` [Compound 947812], the IC50 in assay [1] (setting [3]) and in assay [2] (setting [4]) was at most 100 nM each time.

On to `CC1(C)CC(=O)C2=C(C1)Nc1n[nH]cc1C21CN(c2cccnc2)C1` [Compound 947813], for which the IC50 lay in the range of 1000 to 5000 nM in assay [1] (1 nM GSK3b, 2 μM ATP, 30 minute preincubation, Table 16, read-out: GSK3-B TR-FRET BIOCHEMICAL (TR-FRET), IC50) and 1000 to 5000 nM in assay [2] (1 nM GSK3α, 4 μM ATP, 30 minute preincubation, Table 16, read-out: GSK3-A TR-FRET BIOCHEMICAL (TR-FRET), IC50).

For the molecule `CCC1(c2cccc(-c3ccncc3C)c2)C2=C(CC(C)(C)NC2=O)Nc2n[nH]c(C(F)(F)F)c21` (centres unmarked) [Compound 947814], the IC50 in assay [1] (setting [3]), in assay [1] (setting [7]), in assay [2] (setting [4]) and in assay [2] (setting [8]) was at most 100 nM each time.

On to `CC[C@@]1(c2cccc(-c3ccnc(CCO)c3)c2)C2=C(CC(C)(C)CC2=O)Nc2n[nH]cc21` [Compound 947816], for which the values for the IC50 in assay [1] (setting [5]) and in assay [2] (setting [6]) were over 5000 nM and 1000 to 5000 nM, respectively.

`CC[C@@]1(c2cccc(-c3cnn4c3CCCC4)c2)C2=C(CC(C)(C)NC2=O)Nc2n[nH]c(C)c21` [Compound 947817]: the IC50 in assay [1] (setting [3]) and in assay [2] (setting [4]) was at most 100 nM each time.

As to `CCC1(c2cccc(Oc3ncccn3)c2)C2=C(CC(C)(C)CC2=O)Nc2n[nH]cc21` (centres unmarked) [Compound 947818], the values for the IC50 in assay [1] (setting [5]) and in assay [2] (setting [6]) were over 5000 nM and 100 to 1000 nM, respectively.

Turning to `CC[C@]1(c2cccc(-c3cncn3C)c2)C2=C(CC(C)(C)NC2=O)Nc2n[nH]cc21` [Compound 947820], the IC50 in assay [1] (setting [3]) and in assay [2] (setting [4]) was 100 to 1000 nM throughout.

Regarding `CC[C@@]1(c2cccc(-c3ccncc3F)c2)C2=C(CC(C)(C)NC2=O)Nc2n[nH]c(C)c21` [Compound 947821], the IC50 in assay [1] (setting [3]) and in assay [2] (setting [4]) was at most 100 nM each time.

Regarding `CC[C@]1(c2cccc(-c3cc(C)ncc3F)c2)C2=C(CC(C)(C)NC2=O)Nc2n[nH]cc21` [Compound 947822], the IC50 in assay [1] (setting [3]) was over 5000 nM; in assay [2] (setting [4]), 100 to 1000 nM.

On to `CCC1(c2cccc(-c3cnnn3C)c2)C2=C(CC(C)(C)CC2=O)Nc2n[nH]cc21` (centres unmarked) [Compound 947824], for which the values for the IC50 in assay [1] (setting [5]) and in assay [2] (setting [6]) were 1000 to 5000 nM and 100 to 1000 nM, respectively.

On to `CC[C@]1(c2cccc(N(C)c3ncccn3)c2)C2=C(CC(C)(C)NC2=O)Nc2n[nH]cc21` [Compound 947826], for which the IC50 in assay [1] (setting [3]) and in assay [2] (setting [4]) was at most 100 nM each time.

Consider `CC1(C)CC2=C(C(=O)N1)C1(CCN(S(=O)(=O)c3cnn(C(C)(C)C)c3)CC1)c1c[nH]nc1N2` [Compound 947835], for which the IC50 in assay [1] (setting [3]) is 100 to 1000 nM; in assay [1] (setting [9]), 100 to 1000 nM; in assay [2] (setting [4]), at most 100 nM; in assay [2] (setting [10]), at most 100 nM.

`CCn1ccc(S(=O)(=O)N2CCC3(CC2)C2=C(CC(C)(C)NC2=O)Nc2n[nH]cc23)n1` [Compound 947836]: the IC50 in assay [1] (setting [3]) is 100 to 1000 nM; in assay [1] (setting [9]), 100 to 1000 nM; in assay [2] (setting [4]) it was at most 100 nM; in assay [2] (setting [10]), at most 100 nM.

As to `CCc1ncc(S(=O)(=O)N2CCC3(CC2)C2=C(CC(C)(C)NC2=O)Nc2n[nH]cc23)s1` [Compound 947837], the IC50 in assay [1] (setting [3]), in assay [1] (setting [9]), in assay [2] (setting [4]) and in assay [2] (setting [10]) was at most 100 nM each time.

As to `CCC1(c2cccc(-c3ccnc(C)c3)c2)C2=C(CC(C)(C)NC2=O)Nc2n[nH]c(C(F)(F)F)c21` (centres unmarked) [Compound 947858], the IC50 in assay [1] (setting [3]) and in assay [2] (setting [4]) was at most 100 nM each time.

For the molecule `CCC1(c2cccc(S(=O)(=O)C3CC3)c2)C2=C(CC(C)(C)NC2=O)Nc2n[nH]c(C(F)(F)F)c21` (centres unmarked) [Compound 947859], the IC50 in assay [1] (setting [3]), in assay [1] (setting [7]), in assay [2] (setting [4]) and in assay [2] (setting [8]) was at most 100 nM each time.

With `CCC1(c2cccc(N3CCCC3)c2)C2=C(CC(C)(C)NC2=O)Nc2n[nH]c(C(F)(F)F)c21` (centres unmarked) [Compound 947860], the IC50 in assay [1] (setting [3]) was at most 100 nM; in assay [1] (setting [7]), 100 to 1000 nM; in assay [2] (setting [4]), at most 100 nM; in assay [2] (setting [8]), at most 100 nM.

Turning to `CCC1(c2cccc(-c3ccnc4c3CCC4)c2)C2=C(CC(C)(C)NC2=O)Nc2n[nH]c(C(F)(F)F)c21` (centres unmarked) [Compound 947862], the IC50 in assay [1] (setting [3]) was at most 100 nM; in assay [1] (setting [7]), 100 to 1000 nM; in assay [2] (setting [4]), at most 100 nM; in assay [2] (setting [8]) it was at most 100 nM.

For `CCC1(c2cccc(N3CCOCC3)c2)C2=C(CC(C)(C)NC2=O)Nc2n[nH]c(C(F)(F)F)c21` (centres unmarked) [Compound 947863], the IC50 in assay [1] (setting [3]) and in assay [2] (setting [4]) was at most 100 nM each time.

Take `CCC1(c2cccc(C(F)F)c2)C2=C(CC(C)(C)NC2=O)Nc2n[nH]cc21` (centres unmarked) [Compound 947864]: the IC50 was 100 to 1000 nM in assay [1] (setting [3]) and at most 100 nM in assay [2] (setting [4]).

As for `CCC1(c2cccc(-c3ccncc3F)c2)C2=C(CC(C)(C)NC2=O)Nc2n[nH]c(C(F)(F)F)c21` (centres unmarked) [Compound 947866], the IC50 in assay [1] (setting [3]) and in assay [2] (setting [4]) was at most 100 nM in each case.

For `CCC1(c2cccc(OC(C)C)c2)C2=C(CC(C)(C)CC2=O)Nc2[nH]nc(C(F)(F)F)c21` (centres unmarked) [Compound 947867], the IC50 in assay [1] (setting [5]), in assay [1] (setting [7]), in assay [2] (setting [6]) and in assay [2] (setting [8]) was at most 100 nM in each case.
